Patent US20150306107A1, “SAA Derivative Compound Restores eNOS And Inhibits Oxidative Stress-Induced A Diseases In Hypoxia” (JANSFAT BIOTECHNOLOGY CO., LTD., priority 2014, published 2015)
Counter-ions that a name gives are not always drawn.

Tests used:
eNOS [1] = test: Western blotting of eNOS expression in isolated rat pulmonary artery ring, short-term (acute) hypoxia or normoxia; assay type: cell-based; settings: acute hypoxia; Normoxia 100, Hypoxia 65.3 ± 7.8
Description: (§1) In our in vitro short-term experiment, isolated rat pulmonary artery was grown under normoxia (20% O2) or hypoxia (1% O2) at 37° C. for 24 hrs as was previously done (Wu BN, et al. Int J Immunopathol Pharmacol 24:925, 2011). The heart weight and body weight ratio (HW/BW) of the rats treated with one of SPAAX-1, SPAAX-1 RX complex, Sildenafil or Sildenafil RX complex each measured on the 21st hypoxic day. All animal care and the experimental protocols of this study were approved by the Animal Care and Use Committee of the Kaohsiung Medical University. Male Wistar rats (200-250 g), provided by the National Laboratory Animal Breeding and Research Center (Taipei, Taiwan), were housed under constant temperature and controlled illumination. Food and water were available ad libitum.
(§2) Whole right lung tissues of hypoxia-treated and untreated rats were isolated and cut into small strips and placed into an extraction buffer (Tris 10 mM, pH 7.0, NaCl 140 mM, PMSF 2 mM, DTT 5 mM, NP-40 0.5%, pepstatin A 0.05 mM and leupeptin 0.2 mM) for protein extraction, and then centrifuged at 12,500 g for 30 min. To measure the expression levels of the proteins, the total proteins were extracted and Western blotting analysis was performed as described previously (Bivalacqua T J, et al., 2013, TJ PLoSONE 8: e68028. doi:10.1371/journal. pone.0068028). Briefly, the protein extract was boiled to a ratio of 4:1 with a sample buffer (Tris 100 mM, pH 6.8, glycerol 20%, SDS 4% and bromophenol blue 0.2%). Electrophoresis was performed using 10% SDS-polyacrylamide gel (2 hr, 100 V, 40 mA, […] protein per lane). Separated proteins were transferred to PVDF membranes treated with 5% fat-free milk powder to block the nonspecific IgGs (90 min, 100 V) and incubated for one hour with a specific protein antibody. The blot was then incubated with anti-mouse or anti-goat IgG linked to alkaline phosphatase (1:1000) for 1 hr. Immunoreactive bands were visualized using horseradish peroxidase-conjugated secondary antibodies and subsequent electrochemiluminescence (ECL) detection (GE Healthcare Bio-Sciences Corp., Piscataway, N.J., U.S.A.). Mouse or rabbit monoclonal antibody of eNOS (Upstate, N.Y., U.S.A.), sGCα (Sigma-Adrich, CA, U.S.A., sGCβ (Santa Cruz, Calif., U.S.A.), PDE-5A (BD Tansduction, San Jose, Calif., U.S.A.), PKG (Calbiochem, San Diego, Calif., U.S.A.) ROCKII (Upstate, N.Y., U.S.A.), RhoA (Santa Cruze, Calif., U.S.A.) and the loading control protein β-actin (Sigma-Adrich, MO, U.S.A.) were used in our Western blot analysis.
(§3) The Western blotting analysis measurements were performed as per lung tissue.

VEGF [2] = test: Western blotting of VEGF expression in isolated rat pulmonary artery ring, short-term (acute) hypoxia; assay type: cell-based; settings: Normoxia 100, Hypoxia 175 ± 14
Description: as §1, §2, §3

ROCK II [3] = test: Western blotting of ROCK II expression in isolated rat pulmonary artery ring, short-term (acute) hypoxia or normoxia; assay type: cell-based; settings: acute hypoxia; Normoxia 100, Hypoxia 560 ± 21
Description: as §1, §2, §3

eNOS [4] = test: Western blotting of eNOS expression in rat carvenosus strip, acute hypoxia; assay type: cell-based; design: unit not given here; settings: Normoxia 100, Hypoxia 62.4 ± 5.5
VEGF [5] = test: Western blotting of VEGF expression in rat carvenosus strip, acute hypoxia; assay type: cell-based; design: unit not given here; settings: Normoxia 100, Hypoxia 170 ± 15
ROCK II [6] = test: Cigarette smoking-induced Rho/ROCK activation of rat pulmonary artery ring; assay type: in vivo; settings: Intraperitoneal (100 mg/kg) 1 h prior to smoke exposure, Non-Smoking control 100, Smoking 530 ± 34
Description: Intraperitoneal SAA complex (100 mg/kg in 200 μl of the solution) or 200 μl of saline (control) were given to animals through intraperitoneal injection 1 h prior to smoke exposure.
as §2

ROCK II [7] = test: Streptozotocin (STZ) induced RhoA/ROCKII activation of rat carvenosa tissue; assay type: in vivo; settings: STZ model; 2.5 mg/kg; Control 100, STZ 142 ± 28
Description: (§4) Electrophoresis was performed using 10% SDS-polyacrylamide gel (2 hr, 100 V, 40 mA, […] protein per lane). Separated proteins were transferred to PVDF membranes treated with 5% fat-free milk powder to block the nonspecific IgGs (90 min, 100 V) and incubated for one hour with a specific protein antibody. The blot was then incubated with anti-mouse or anti-goat IgG linked to alkaline phosphatase (1:1000) for 1 hr. Immunoreactive bands were visualized using horseradish peroxidase-conjugated secondary antibodies and subsequent electrochemiluminescence (ECL) detection (GE Healthcare Bio-Sciences Corp., Piscataway, N.J., U.S.A.). Mouse or rabbit monoclonal antibody of eNOS (Upstate, N.Y., U.S.A.), sGCα (Sigma-Adrich, CA, U.S.A., sGCβ (Santa Cruz, Calif., U.S.A.), PDE-5A (BD Tansduction, San Jose, Calif., U.S.A.), PKG (Calbiochem, San Diego, Calif., U.S.A.) ROCKII (Upstate, N.Y., U.S.A.), RhoA (Santa Cruze, Calif., U.S.A.) and the loading control protein β-actin (Sigma-Adrich, MO, U.S.A.) were used in our Western blot analysis.

eNOS [8] = test: Streptozotocin (STZ) induced eNOS down-regulation of rat carvenosa tissue; assay type: in vivo; settings: STZ model; 2.5 mg/kg; Control 100, STZ 60 ± 7.3
Description: as §4

ROCK II [9] = test: Cigarette smoking-induced Rho/ROCK activation of rat pulmonary artery ring; assay type: in vivo; settings: Nebulization (2.5 mM), Non-Smoking control 100, Smoking 540 ± 28

CCCc1nn(C)c2c(=O)[nH]c(-c3cc(S(=O)(=O)N4CCN(C)CC4)ccc3OCC)nc12 [Reagent 1004, Sildenafil citrate complex, reference compound]
eNOS expression, Pulmonary Artery Ring (eNOS [1]): 132 ± 6.6
VEGF expression, Pulmonary Artery Ring (VEGF [2]): 110 ± 3.8
ROCK II expression, Pulmonary Artery Ring (ROCK II [3]): 205 ± 8.5
eNOS expression, Carvenosus (eNOS [4]): 125 ± 6.9
VEGF expression, Carvenosus (VEGF [5]): 105 ± 9.2
ROCK II of pulmonary artery ring (ROCK II [6]): 76 ± 6.8
ROCK II, Carvanosus tissue (ROCK II [7]): 44 ± 3.8%
eNOS, Carvanosus tissue (eNOS [8]): 74 ± 6.8%
ROCK II of pulmonary artery ring (ROCK II [9]): 64 ± 3.8
